Assay results as given in patent US11559525B2, “Therapeutic drug for dyskinesia” (Sumitomo Pharma Co., Ltd., priority 2019, dated 2023).
Where a name gives a salt, the structure may show the parent alone.

Key:
[1] = test system: PD-LID rat model (6-OHDA-lesioned rats); test: Tandospirone metabolite 1-PP on dyskinesia-like symptoms in PD-LID rat model; type: in vivo; details: subcutaneous 10 or 30 mg/kg
Procedure: The behavior was observed and evaluated using the same method in Example 2. 1-PP dihydrochloride (Tokyo Chemical Industry) was dissolved in saline and subcutaneously administered to rats. After 5 minutes, a levodopa containing solution was intraperitoneally administered to observe and evaluate the behavior. The results in the drawings are indicated in terms of mean value±standard error. The test results were statistically analyzed by comparison with the solvent administration group by Steel test by using the total AIMs score in 3 hours and total AIMs score in 100 to 180 minutes as parameters.

[2] = test system: PD-LID rat model (6-OHDA-lesioned rats); test: ON-time prolongation action (ON score, ON time without dyskinesia) in PD-LID rat model; type: in vivo
Procedure: To make a PD-LID rat model, a mixture of levodopa methyl ester hydrochloride (6 mg/kg; Sigma-Aldrich) dissolved in saline and benserazide hydrochloride (15 mg/kg; Sigma-Aldrich) (hereinafter, also referred to as “levodopa containing solution”) was intraperitoneally administered once daily to 6-OHDA-lesioned rats. The levodopa containing solution was repeatedly administered for 3 weeks or longer to observe and evaluate the behavior. […] The sum of the scores for Limb AIMs, Axial AIMs, and Orolingual AIMs in 3 hours was used as the total dyskinesia-like symptom (AIMs) score. Individuals with a total AIMs score of less than 10 were excluded from the test as not manifesting a dyskinesia-like symptom. The behavior was observed and evaluated before the drug evaluation date. The rats were assigned to each dosing group by using the 3 hour total dyskinesia-like symptom (AIMs) score, Locomotive behavior score, and rat body weight as indicators, which were used for evaluation of drugs. For an indicator of dyskinesia behavior, the sum of the Limb AIMs, Axial AIMs, and Orolingual AIMs at each evaluation point was used as the AIMs score. For the rotational behavior (ON score), Locomotive behavior at each evaluation point was used as an indicator. The total ON score in 3 hours was used as the total ON score. For ON time without dyskinesia, the period during which the AIMs score is 0 and Locomotive behavior is 1 or greater at each evaluation point was added. Duration of action of levodopa without a dyskinesia symptom (ON time without dyskinesia) refers to the aggregate time with no dyskinesia during the antiparkinsonian action effective time, i.e., “ON-time”, and defined as the time during which the dyskinesia symptom (AIMs) score is 0 and the rotational behavior (Locomotive behavior) score is 1 or greater at each evaluation point after levodopa administration. […] After 5 minutes, a levodopa containing solution was intraperitoneally administered, and the behavior was observed and evaluated. The results in the drawings are indicated in terms of mean value±standard error. The test results were statistically analyzed by comparison with the solvent administration group using the Steel test with the total ON score in 3 hours or ON time without dyskinesia as an indicator. ** indicates p<0.01, meaning that there is a significant difference. For evaluation of a tape agent, the abdominal regions of the rats were shaved prior to the evaluation date. […] After 4 hours from application, a levodopa containing solution was intraperitoneally administered to observe and evaluate the behavior. The results in the drawings are indicated in terms of mean value±standard error. Individuals with 50% or more of the tape agent coming off during the test were excluded from analysis. The test results were statistically analyzed by comparison with the placebo tape administration group using Wilcoxon rank sum test with the total ON score in 3 hours or ON time without dyskinesia as an indicator. * indicates p<0.05 and ** indicates […], meaning that there is a significant difference compared to the solvent oral administration group or the placebo tape administration group.

[3] = test system: PD-LID rat model (6-OHDA-lesioned rats); test: Oral administration of tandospirone citrate on dyskinesia-like symptoms in PD-LID rat model; type: in vivo; details: oral 30 or 100 mg/kg
[4] = Plasma tandospirone concentration measured after observation and evaluation of behavior in PD-LID rats; type: in vivo, rat; details: continuous subcutaneous infusion 60 mg/mL citrate
Procedure: 50 μL of rat plasma sample was fractionated into a polypropylene microtube. 50 μL of methanol (50 μL of standard solution for calibration curve sample) and 200 μL of internal standard solution (Bezafibrate methanol solution: 200 nmol/L, 200 μL of methanol for blank sample) are added and stirred for about 10 seconds with a mixer. This is centrifuged (4° C., 4500 rpm, 10 min), and then the supernatant is subjected to vacuum filtration using a filter (FastRemover MF 0.2 μm). 70 μL of aqueous 10 mmol/L ammonium acetate solution is added to 70 μL of the resulting filtrate and stirred for about 10 seconds with a mixer to prepare a measurement sample.
When evaluating a tape agent, the hair on the abdominal region of rats was shaved before the evaluation date. The tape agent of formulation 2 was applied to the abdominal regions of rats on the evaluation date at 60 cm^2/kg (37 mg/kg). After 4 hours from application, a levodopa containing solution was intraperitoneally administered to observe and evaluate the behavior. Individuals with 50% or more of the tape agent coming off during the test were excluded from analysis.
After 4 hours from application, a levodopa containing solution was intraperitoneally administered to observe and evaluate the behavior. Individuals with 50% or more of the tape agent coming off during the test were excluded from analysis.
After 4 hours, a levodopa containing solution was administered to observe and evaluate the behavior.
After 4 hours, a levodopa containing solution was administered to observe and evaluate the behavior (day 0 of implanting the pump). Repeat administration of once daily levodopa containing solution was continued thereafter. The behavior was also observed and evaluated on day 13 of implanting the pump.

[5] = test system: 6-OHDA-lesioned rats; test: Prevention/delay of manifestation of dyskinesia by continuous subcutaneous infusion in 6-OHDA-lesioned rats; type: in vivo, rat
Procedure: The prepared solution was used after injection into an ALZET® Osmotic Pump MODEL 2ML2 (4.53 μL/hour; DURECT).
6-OHDA-lesioned rats were assigned to each administration group using the number of apomorphine hydrochloride hemihydrate induced rotations and body weight as indicators. […] The osmotic pump implanted subcutaneously was retrieved after the observation and evaluation of behavior on day 15. The behavior was also observed and evaluated on the following day (day 16 of repeated administration of levodopa).
The test results were statistically analyzed by comparison with the solvent administration group using Steel test with the total AIMs score on day 16 of repeated levodopa administration as the parameter. * indicates p<0.05 and ** indicates p<0.01, meaning that there is a significant difference compared to the solvent administration group.

[6] = test system: PD-LID rat model (6-OHDA-lesioned rats); test: Oral administration of tandospirone citrate on dyskinesia-like symptoms in PD-LID rat model; type: in vivo; details: oral 10, 30, or 100 mg/kg as citrate concentration, levodopa 5 minutes later
Procedure: The behavior was observed and evaluated using the same method as Example 2. […] After 5 minutes, a levodopa containing solution was intraperitoneally administered, and the behavior was observed and evaluated. The results in the drawings are indicated in terms of mean value±standard error. The test results were statistically analyzed by comparison with the solvent administration group by Steel test using the total AIMs score in 3 hours and total AIMs score in 100 to 180 minutes as parameters. * indicates p<0.05, meaning that there is a significant difference. The dosage was described as a numerical value converted in terms of tandospirone free form.

[7] = test system: PD-LID rat model (6-OHDA-lesioned rats); test: Long-term dyskinesia improving effect of continuous subcutaneous infusion in PD-LID rat model; type: in vivo
Procedure: Individuals with a total AIMs score of less than 15 were excluded from the test as not manifesting a dyskinesia-like symptom. The behavior was observed and evaluated before the drug evaluation date. The rats were assigned to each dosing group by using the 3 hour AIMs score, Locomotive behavior score, and rat body weight as indicators, which were used for evaluation of drugs. […] The prepared solution was used after injection into an ALZET® Osmotic Pump MODEL 2ML2 (4.53 μL/hour; DURECT) for releasing a drug solution at a stable rate for 2 weeks. […] After 4 hours, a levodopa containing solution was administered to observe and evaluate the behavior (day 0 of implanting the pump). Repeat administration of once daily levodopa containing solution was continued thereafter. The behavior was also observed and evaluated on day 13 of implanting the pump. […] The results in the drawings are indicated in terms of mean value±standard error of the total AIMs scores in 3 hours. The test results were statistically analyzed using Wilcoxon rank sum test using the total AIMs score as a parameter. ** indicates p<0.01, meaning that there is a significant difference compared to the solvent administration group.

[8] = oral 30 mg/kg and 100 mg/kg as citrate

mean value of plasma tandospirone concentrations (converted in terms of free form) ([4]; day 0 of implanting the pump) [ng/mL]	mean value of plasma tandospirone concentrations (converted in terms of free form) ([4]; day 13 of implanting the pump) [ng/mL]	Compound	clear dyskinesia-like symptom (mean AIMs score of 2 or greater) at 120 to 140 minutes after levodopa [1]	total AIMs score in 100 to 180 minutes vs solvent [1]	total AIMs score vs solvent ([1]; levodopa 5 minutes later)	ON time without dyskinesia for 180 minutes vs solvent [2, 8]	total ON score after 180 minutes of levodopa administration vs solvent [2, 8]	ON-time without dyskinesia for 180 minutes (Locomotive behavior ≥1, and AIMs score=0) ([2]; oral 100 mg/kg as citrate)	total ON score ([2]; oral 100 mg/kg as citrate)	clear dyskinesia-like symptom (mean AIMs score of 2 or greater) at 120 to 140 minutes after levodopa administration [3]	total AIMs score in 100 to 180 minutes vs solvent [3]	increase in total AIMs score associated with repeated administration of levodopa vs solvent ([5]; continuous subcutaneous infusion 30 mg/mL (mean 0.41 mg/kg/hour) or 60 mg/mL (mean 0.83 mg/kg/hour), days 3-15)	total AIMs score on the day after completion of administration (day 16) vs solvent ([5]; continuous subcutaneous infusion 30 or 60 mg/mL, pump retrieved day 15)	total AIMs score vs solvent [6]	dyskinesia-like symptoms (total AIMs score in 180 minutes) vs solvent ([7]; continuous subcutaneous infusion 60 mg/mL (mean 0.78 mg/kg/hour as citrate), day 0 of implanting the pump)	dyskinesia-like symptoms (total AIMs score in 180 minutes) vs solvent ([7]; continuous subcutaneous infusion 60 mg/mL citrate, day 13 of implanting the pump)
–	–	c1cnc(N2CCNCC2)nc1 [1-PP dihydrochloride, 1-(2-Pyrimidyl) piperazine]	clear dyskinesia-like symptom (mean AIMs score of 2 or greater) was observed	increasing trend in the total AIMs score, albeit not significant	significant change in the total AIMs score was not found	–	–	–	–	–	–	–	–	–	–	–
281	143	tandospirone citrate	–	–	–	increase in ON time without dyskinesia	increase in the total ON score	significant prolongation	increase in the total ON score	clear dyskinesia-like symptom (mean AIMs score of 2 or greater) was observed	significant increase	suppressed the increase in total AIMs score	significantly lower	significant change in the total AIMs score was not observed	Significant improvement	significant improvement
